Key:
fkbp5 = assay: qPCR fkbp5 expression in zebrafish larvae; format: in vivo, zebrafish (Danio rerio); details: for fkbp5 expression, short-term treatment / fkbp5 expression, long-term treatment: beclomethasone 10 μM, Rg1 50 μM or combination; for fkbp5 expression, long-term treatment: 5 days
Experimental: […] Groups of 15 larvae were collected in TRIzol reagent (ThermoFisher) and total RNA was isolated using miRNeasy mini kit (Qiagen, Hilden, Germany). For experiments in HeLa cells, cells were seeded in 6 well plates and after treatment, the cells were removed from the wells using TRIzol reagent and mRNA was isolated using miRNeasy mini kit (Qiagen) according to the manufacturer's instructions. The RNA samples were DNAse-treated utilizing the DNA-free™ DNA Removal Kit (ThermoFisher Scientific). The cDNA synthesis was performed using the iScript cDNA synthesis kit (Bio-Rad Laboratories, Hercules, CA, USA) using 1 μg of RNA per sample. For qPCR, 10 μM of forward primer and 10 μM of reverse primer, 12.5 μl of IQ SYBR Green Supermix (Bio-Rad Laboratories), and 2 μl of cDNA were added to the qPCR reaction mixture. […] The qPCR reactions were performed on a MyiQ-single-color real-time PCR detection system (Bio-Rad Laboratories), with initial denaturation for 3 min, 95° C., and 40 cycles of 15 s at 95.5° C., 15 s at 60° C., and 30 s at 72° C. Cycle threshold values (Ct values, i.e. the cycle numbers at which a threshold value of the fluorescence intensity was reached) were determined for each sample. The gene expression level for each sample was normalized using the expression of ppial (peptidylprolyl isomerase Ab (cyclophilin A)) for zebrafish samples, and 18S rRNA for human cells. The fold change per sample (compared to the respective control group) was calculated using the […]Ct method.
[…] Per sample, groups of 15 larvae were collected in TRIzol reagent (Thermo Fisher Scientific, Waltham, MA, USA), and total RNA was isolated using the miRNeasy mini kit (Qiagen, Hilden, Germany). For similar experiments in Hela cells, cells were seeded in 6 well plates, and after 6 h of chemical treatment, the cells were removed from the wells using TRIzol reagent, and total RNA was isolated using the miRNeasy mini kit according to the manufacturer's instructions. The RNA samples were DNAse-treated utilizing the DNA-free™ DNA Removal Kit (Thermo Fisher Scientific). The cDNA synthesis was performed using the iScript cDNA synthesis kit (Bio-Rad Laboratories, Hercules, CA, USA) using 1 μg of RNA per sample. For the PCR reactions, 10 μM of forward and 10 μM of reverse primer, 12.5 μl of iQ SYBR Green Supermix (Bio-Rad), and 2 μl of cDNA were added to the qPCR reaction mixture. […] The reactions were performed on a MyiQ-single-color real-time PCR detection system (Bio-Rad Laboratories) with initial denaturation for 3 min at 95° C. and 40 cycles of 15 s at 95.5° C., 15 s at 60° C., and 30 s at 72° C. Cycle threshold values (Ct values, i.e. the cycle numbers at which a threshold value of the fluorescence intensity was reached) were determined for each sample. The gene expression level for each sample was normalized using the expression of ppial (peptidylprolyl isomerase Ab (cyclophilin A)) for zebrafish samples, 18S rRNA for human cells. The fold change per sample (compared to the respective control group) was calculated using the ΔΔCt method.

il6 = assay: qPCR il6 expression in zebrafish larvae; format: in vivo, zebrafish (Danio rerio); details: for il6 expression after wounding: 10 μM beclomethasone, 50 μM Rg1 or combination, 4 h after wounding
Experimental: To determine levels of gene expression in zebrafish larvae, 3 dpf larvae were used in both wounded and non-wounded conditions, and after short- and long-term treatments. Groups of 15 larvae were collected in TRIzol reagent (ThermoFisher) and total RNA was isolated using miRNeasy mini kit (Qiagen, Hilden, Germany). For experiments in HeLa cells, cells were seeded in 6 well plates and after treatment, the cells were removed from the wells using TRIzol reagent and mRNA was isolated using miRNeasy mini kit (Qiagen) according to the manufacturer's instructions. The RNA samples were DNAse-treated utilizing the DNA-free™ DNA Removal Kit (ThermoFisher Scientific). The cDNA synthesis was performed using the iScript cDNA synthesis kit (Bio-Rad Laboratories, Hercules, CA, USA) using 1 μg of RNA per sample. For qPCR, 10 μM of forward primer and 10 μM of reverse primer, 12.5 μl of IQ SYBR Green Supermix (Bio-Rad Laboratories), and 2 μl of cDNA were added to the qPCR reaction mixture. […] The qPCR reactions were performed on a MyiQ-single-color real-time PCR detection system (Bio-Rad Laboratories), with initial denaturation for 3 min, 95° C., and 40 cycles of 15 s at 95.5° C., 15 s at 60° C., and 30 s at 72° C. Cycle threshold values (Ct values, i.e. the cycle numbers at which a threshold value of the fluorescence intensity was reached) were determined for each sample. […] The fold change per sample (compared to the respective control group) was calculated using the […]Ct method.
To determine mRNA levels of specific genes in zebrafish, 3 dpf larvae were used (wounded and non-wounded) and after 6 h of chemical treatments (2 h pre-wounding, 4 h post-wounding), as indicated. […] Cycle threshold values (Ct values, i.e. the cycle numbers at which a threshold value of the fluorescence intensity was reached) were determined for each sample. […] The fold change per sample (compared to the respective control group) was calculated using the ΔΔCt method.

[1] = 3 dpf, wounded larvae, 6 h, 10 μM beclomethasone, 50 μM Rg1 or combination

Structure (SMILES) | fkbp5 expression (fkbp5; Example 2, 6 h treatment) | fkbp5 expression (fkbp5; [1]) | fkbp5 expression, short-term treatment (fkbp5; 6 h) | fkbp5 expression, long-term treatment (fkbp5) | il6 expression after wounding (il6) | il6 expression (il6; Example 2, wounded larvae)
CC(C)=CCC[C@](C)(O[C@@H]1O[C@H](CO)[C@@H](O)[C@H](O)[C@H]1O)[C@H]1CC[C@]2(C)[C@@H]1[C@H](O)C[C@@H]1[C@@]3(C)CC[C@H](O)C(C)(C)[C@@H]3[C@@H](O)C[C@]12C [F1] | did not increase the expression | – | – | – | – | –
CC(C)=CCC[C@](C)(O)[C@H]1CC[C@]2(C)[C@@H]1[C@H](O)C[C@@H]1[C@@]3(C)CC[C@H](O)C(C)(C)[C@@H]3[C@@H](O[C@@H]3O[C@H](CO)[C@@H](O)[C@H](O)[C@H]3O)C[C@]12C [Rh1] | did not increase the expression | – | – | – | – | –
CC(C)=CCC[C@](C)(O[C@@H]1O[C@H](CO)[C@@H](O)[C@H](O)[C@H]1O)[C@H]1CC[C@]2(C)[C@@H]1[C@H](O)C[C@@H]1[C@@]3(C)CC[C@H](O)C(C)(C)[C@@H]3[C@@H](O[C@@H]3O[C@H](CO)[C@@H](O)[C@H](O)[C@H]3O)C[C@]12C [Rg1, (3β,6α, 12β)-3,12-Dihydroxydammar-24-ene-6,20-diyl bis-β-D-glucopyranoside] | did not increase the expression | did not affect the expression of these genes | did not affect the expression of the genes | did not affect the expression of the genes | slightly decreased the expression of these genes | –
CC(C)=CCC[C@](C)(O)[C@H]1CC[C@]2(C)[C@@H]1[C@H](O)C[C@@H]1[C@@]3(C)CC[C@H](O)C(C)(C)[C@@H]3[C@@H](O)C[C@]12C [PPT, Protopanaxatriol] | did not increase the expression | – | – | – | – | –
C[C@H]1C[C@H]2[C@@H]3CCC4=CC(=O)C=C[C@]4(C)[C@@]3(Cl)[C@@H](O)C[C@]2(C)[C@@]1(O)C(=O)CO [beclomethasone, reference compound] | – | upregulated the expression of pck1 and fkbp5 | upregulated the expression | the upregulation of fkbp5 did not decrease | slightly decreased the expression of these genes | suppressed the expression levels of il1b, il6 and mmp9, similarly to Bec
